How the values were obtained:
Format in all cases: cell-based
[1] = test system: E. coli XL1 with folP/glmM driven by pBAD promoter; test: L-arabinose-addiction regulated essential gene operon folP/glmM, cell growth (OD600); conditions: 37° C.
[2] = test system: E. coli XL-1 with pBAD-TA5; test: L-arabinose-addiction yefM-yoeB TA system, cell growth (OD600)
Procedure: The yefM-yoeB TA pair was cloned into a plasmid (pBAD-TA5: araC, pBAD-yefM, pLac-yoeB, ampR) (Table 1) employing standard PCR cloning protocols (known in the art) and the plasmid was transformed into the host stain E. coli XL-1 with the genotype: recA1endA1 gyrA96 thi-1 hsdR17 supE44 relA1 lac[F′proAB lacIqZM15 Tn10 (TetR)]. Electroporation recovery of transformed cells was carried out in SOC medium (2% tryptone, 0.5% yeast extract, 10 mM NaCl, 2.5 mM KCl, 10 mM MgCl2, 10 mM MgSO4, and 20 mM glucose).
Transformed E. coli cultures were grown in 2xYT medium (10 g/L yeast extract, 16 g/L tryptone, 5 g/L NaCl). Antibiotics were added to select for maintenance of plasmids in strains transformed with these, according to their respective antibiotic resistance gene. Antibiotic concentrations when added were as follows: ampicillin 100 μg/mL, chloramphenicol 30 μg/mL, spectinomycin 50 μg/mL, kanamycin 50 μg/mL.
The expression of the yoeB gene in the yefM-yoeB TA pair construct (FIG. 2) was placed under the control of the Lac promoter, which is inducible by isopropyl β-D-1-thiogalactopyranoside (IPTG). Exposure of the cells to increasing concentrations of IPTG induced sufficient expression of the YoeB toxin to prevent growth, when the cells were grown in the absence of any source of L-arabinose (FIG. 3A). […]

[3] = test system: E. coli with mevalonate biosensor TA plasmid (pBAM-TA5); conditions: 37 mM mevalonate added; no IPTG
[4] = test system: E. coli strain e3.18#1; test: Salicylic acid-dependent growth of addicted strain; conditions: 5 mM salicylic acid
Excerpt: The native single genomic copy of the essential gene operon folP-glmM in the E. coli XL1 host strain was modified to allow its transcriptional control by the salicylic acid-responsive promoter pSAL [SEQ ID No:118]. First, a gene encoding a salicylic acid biosensor (Pseudomonas putida nahR_Asn169 (Cebolla et al., 1997)) was introduced into the XL1 host strain on the plasmid pBANspec (Table 10). Then, replacement of the native folP-glmM promoter by the pSAL promoter was engineered by means of lambda red-mediated recombineering.
Recombineering was performed as described in section 2.3 using well-described methods utilizing the pKD46 plasmid (Datsenko and Wanner, 2000). Instead of gene disruption, a specific set of knock-out DNA fragments was used to only replace the native essential folP-glmM operon promoter and folP RBS. […]
(§1) A selected addicted strain (e3.18#1) and the non-addicted control E. coli strain (e3.18CON) were then tested for salicylic acid dependent growth by cultivation in a microtiter plate reader in liquid 2xYT medium supplemented with spectinomycin and kanamycin and presence/absence of salicylic acid (0 or 5 mM). […]

[5] = test system: E. coli control strain e3.18CON; test: Toxicity of salicylic acid to non-addicted control strain, growth in microtiter plate; conditions: 2xYT, 5 mM salicylic acid, 37 deg. C.
Procedure: Recombineering was performed as described in section 2.3 using well-described methods utilizing the pKD46 plasmid (Datsenko and Wanner, 2000). Instead of gene disruption, a specific set of knock-out DNA fragments was used to only replace the native essential folP-glmM operon promoter and folP RBS. This set of knockout DNA fragments contained a kanamycin resistance cassette and the pSAL promoter, as illustrated in the cartoon in FIG. 8, as well as a redundant nucleotide (“N”, wherein “N” is any of A, T , G or C) in the RBS for folP-glmM to generate a four-membered library of folP translational strengths. This library allows selection of a translational strength for folP that suits the transcriptional regulation by the biosensor. Finally, candidate recombineered cells were selected for by plating on LB agar plates supplemented with 5 mM salicylic acid and spectinomycin for maintenance of pBANspec; and kanamycin for selection of inserted knockout fragment. […]
as §1

[6] = test system: E. coli strain e3.22#4; test: Benzoic acid-dependent growth of addicted strain; conditions: 5 mM benzoic acid
Excerpt: The native single genomic copy of the essential gene operon folP-glmM in the E. coli XL1 host strain was modified to allow its transcriptional control by the benzoic acid-responsive promoter pSAL [SEQ ID No:118]. First, a gene encoding a benzoic acid biosensor (Pseudomonas putida nahR) (Table 12) was introduced into the XL1 host strain on the plasmid pBABspec. Then, replacement of the native folP-glmM promoter by the pSAL promoter was engineered by means of lambda red-mediated recombineering.
Recombineering was performed as described in section 2.3 using well-described methods utilizing the pKD46 plasmid (Datsenko and Wanner, 2000)). Instead of gene disruption, a specific set of knock-out DNA fragments was used to only replace the native essential folP-glmM operon promoter and folP RBS. This set of knockout DNA fragments contained a kanamycin resistance cassette and the pSAL promoter, as illustrated in the cartoon in FIG. 8, as well as a redundant nucleotide (“N”, wherein “N” is any of A, T , G or C) in the RBS for folP-glmM to generate a four-membered library of folP translational strengths. […]
A selected addicted strain (e3.22#4) and the non-addicted control E. coli strain (e3.18CON) were then tested for benzoic acid dependent growth by cultivation in a microtiter plate reader in liquid 2xYT medium supplemented with spectinomycin and kanamycin and w/wo salicylic acid (0 or 5 mM). […]

[7] = test system: E. coli control strain e3.22CON; test: Toxicity of benzoic acid to non-addicted control strain, growth in microtiter plate; conditions: 2xYT, 5 mM benzoic acid, 37 deg. C.
Procedure: A non-addicted control E. coli strain (e3.22CON), also equipped with spectinomycin and kanamycin resistance genes, but wild-type control of folP-glmM expression (Table 13), was constructed in order to test the toxicity of benzoic acid.
A selected addicted strain (e3.22#4) and the non-addicted control E. coli strain (e3.18CON) were then tested for benzoic acid dependent growth by cultivation in a microtiter plate reader in liquid 2xYT medium supplemented with spectinomycin and kanamycin and w/wo salicylic acid (0 or 5 mM). […] In contrast to the control strain, the growth rate and final biomass yield of the addicted strain e3.18#1 was enhanced by supplementation with benzoic acid with a growth rate higher than otherwise expected for non-addicted strains (FIG. 16).

[8] = test system: E. coli XL1 with pBAT-TA5; test: TPP-responsive riboswitch-regulated TA system, cell growth (OD600); conditions: presence of inducer TPP (500 μM added to the growth medium)
Excerpt: A TPP-responsive riboswitch (ThiMN15 #19) was engineered into the previously constructed L-arabinose-responsive TA-based correction system (pBAD-TA5 to yield pBAT-TA5). This TPP riboswitch functions as an “ON-type” when in the presence of its ligand TPP, and it is functional at the level of translation. The riboswitch was inserted into the DNA region of the pBAD-TA5 gene construct that encodes the 5′ untranslated region (UTR) of the antitoxin mRNA sequence (FIG. 17). For optimal functionality of the riboswitch, a protein-encoding sequence tet was also added as N-terminal fusion to YefM as it originated from the screen where ThiMN15#19 had been identified. An alternative TPP-responsive riboswitch was constructed, where an “OFF-type” riboswitch was inserted into the DNA region of the pBAD-TA5 gene construct that encodes the 5′-UTR of the toxin-encoding sequence to yield the same ligand-responsive growth.
An alternative TPP responsive-riboswitch-regulated TA correction system was engineered with a constitutive promoter driving expression of the riboswitch-yefM mRNA. From a selection of constitutive promoters (SEQ ID Nos.: 47-65, 89) of different strengths, the pBAD promoter of pBAT-TA5 was replaced and the resulting plasmids transformed into E. coli XL1. […]

[9] = test system: E. coli strain e3.16#5; test: Triacetic acid lactone-dependent growth of addicted strain
Excerpt: The native single genomic copy of the essential gene operon folP-glmM in the E. coli XL1 host strain was modified to allow its transcriptional control by the triacetic acid lactone-responsive promoter pBAD. First, a gene encoding a triacetic acid lactone biosensor (AraCtal (Tang et al., 2013)) was introduced into the XL1 host strain on the plasmid pBALspec (Table 8). Then, replacement of the native folP-glmM promoter in this host strain by the pBAD promoter was engineered by means of lambda red-mediated recombineering. Recombineering was performed using well-described methods utilizing the pKD46 plasmid (Datsenko and Wanner, 2000), but instead of gene disruption, a specific set of knock-out DNA fragments (produced by PCR) was used to only replace the native essential folP-glmM operon promoter and folP ribosomal binding site (RBS). This set of knockout DNA fragments each contained a kanamycin resistance cassette and the pBAD promoter, as illustrated in the cartoon in FIG. 8. The nucleotide sequence of the set of gene knockout DNA fragments differed only with respect to the redundant nucleotide (“N”, wherein “N” is any of A, T, G or C) in the RBS sequence (ACTTGC) for folP-glmM, which generated a four-membered library of folP translational strengths.
For recombineering, as performed in standard pKD46 protocols, the target strain was first transformed with pKD46, and a single colony of this strain was then cultured in a 25 mL 2xYT culture at 30 degrees C. and 250 rpm horizontal shaking. When the culture reached OD600=0.1, the lambda Red system of pKD46 was induced by addition of 0.2 vol % L-arabinose, and then further cultured to grow to OD600=0.4. […]
The non-addicted control E. coli strain (e3.16CON), and a selected addicted strain (e3.16#5) were then tested and compared for triacetic acid lactone-dependent growth by cultivation in a microtiter plate reader in liquid 2xYT medium supplemented with spectinomycin and kanamycin and a three-step gradient of triacetic acid lactone (0, 2 and 20 mM). […]

[10] = test system: E. coli control strain e3.16CON; test: Toxicity of triacetic acid lactone to non-addicted control strain, growth in microtiter plate
Procedure: A non-addicted control E. coli strain (e3.16CON), also equipped with spectinomycin and kanamycin resistance genes, but with wildtype control of folP-glmM expression (Table 9), was constructed in order to test the toxicity of triacetic acid lactone.
The non-addicted control E. coli strain (e3.16CON), and a selected addicted strain (e3.16#5) were then tested and compared for triacetic acid lactone-dependent growth by cultivation in a microtiter plate reader in liquid 2xYT medium supplemented with spectinomycin and kanamycin and a three-step gradient of triacetic acid lactone (0, 2 and 20 mM). […] The observed growth depression was greatest at a concentration of 20 mM triacetic acid lactone.

O=C[C@H](O)[C@@H](O)[C@@H](O)CO [L-arabinose]
cell growth ([1]; 2xYT supplemented with 0.0025% L-arabinose, 12-hour time course): completely failed to grow | cell growth ([1]; 2xYT supplemented with 0.25% L-arabinose): exponential | L-arabinose concentration sufficient to restore wild-type growth ([2]; co-addition with IPTG at concentrations up to 0.5 mM): 0.1%

CC(O)(CCO)CC(=O)O (stereo not drawn) [mevalonate]
effect on cell growth compared to cultures devoid of mevalonate [3]: increase in cell growth

O=C(O)c1ccccc1O [salicylic acid]
growth rate of addicted strain [4]: not reduced | effect on growth of control strain [5]: relative reduction in growth rate and final biomass yield

O=C(O)c1ccccc1 [benzoic acid]
growth rate and final biomass yield of addicted strain [6]: enhanced | effect on growth of control strain [7]: relative reduction in growth rate and final biomass yield

Cc1ncc(C[n+]2csc(CCO[P@](=O)(O)OP(=O)(O)O)c2C)c(N)n1 [TPP, thiamine pyrophosphate]
effect on growth [8]: enhanced growth

Cc1cc(O)cc(=O)o1 [triacetic acid lactone]
final cell yield of addicted strain ([9]; 2 mM triacetic acid lactone): increased | growth rate of addicted strain ([9]; 2 mM triacetic acid lactone): enhanced | final cell yield of addicted strain ([9]; 20 mM triacetic acid lactone): increased | effect on growth of control strain ([10]; 2xYT, 0, 2 and 20 mM triacetic acid lactone, 37 deg. C.): relative reduction in growth rate | concentration at which observed growth depression was greatest ([10]; gradient 0, 2 and 20 mM): 20000 µM

CC(C)S[C@@H]1O[C@H](CO)[C@H](O)[C@H](O)[C@H]1O [IPTG, isopropyl β-D-1-thiogalactopyranoside]
IPTG (toxin inducer) concentration at which cell growth was strongly inhibited ([2]; no L-arabinose, yoeB toxin under pLac): ≥ 0.1 mM
